Starred links: 1 amine or outer side, 2 acyl side, 3 side chain; linkers in the order of their positions; H or OH if unused. Positions of bridges follow the written chain, without caps; N, C: chain ends. Non-standard residues stand in square brackets, D forms with d. Residues, ends and D or L forms follow the SMILES beside them. *: point of attachment. hPhe(3-Cl-4-CF3) = N[C@@H](CCc1ccc(C(F)(F)F)c(Cl)c1)C(=O)O; NMeDab(N,N-(CH2CF2CH2)) = CN[C@@H](CCN1CC(F)(F)C1)C(=O)O; hPhe(4-CF3) = N[C@@H](CCc1ccc(C(F)(F)F)cc1)C(=O)O; Pro(cis-4-Ph) = O=C(O)[C@@H]1C[C@H](c2ccccc2)CN1; Phe(2-OCF3) = N[C@@H](Cc1ccccc1OC(F)(F)F)C(=O)O; Phe(2-CF3) = N[C@@H](Cc1ccccc1C(F)(F)F)C(=O)O; NMePhe(4-Cl) = CN[C@@H](Cc1ccc(Cl)cc1)C(=O)O; NMePhe(4-Me) = CN[C@@H](Cc1ccc(C)cc1)C(=O)O; Abu(4,4,4-F3) = N[C@@H](CC(F)(F)F)C(=O)O; NMeGly(cPent) = CN[C@H](C(=O)O)C1CCCC1; Phe(2-OMe) = COc1ccccc1C[C@H](N)C(=O)O; Phe(3-I) = N[C@@H](Cc1cccc(I)c1)C(=O)O; X10 = CC(C)=CC[C@H](N[*:1])C(=O)[*:2]; NMeCha = CN[C@@H](CC1CCCCC1)C(=O)O; Azetidine(3,3-F2) = FC1(F)CN(*)C1; NMeChg = CN[C@H](C(=O)O)C1CCCCC1; NMeF = CN[C@@H](Cc1ccccc1)C(=O)O; NMeI = CC[C@H](C)[C@H](NC)C(=O)O; NMeT = CN[C@H](C(=O)O)[C@@H](C)O; NMeD = CN[C@@H](CC(=O)O)C(=O)O; NMeL = CN[C@@H](CC(C)C)C(=O)O; NMeNva = CCC[C@H](NC)C(=O)O; NMeV = CN[C@H](C(=O)O)C(C)C; d(β3hA) = C[C@@H](N)CC(=O)O; Pip = O=C(O)[C@@H]1CCCCN1; NMeA = CN[C@@H](C)C(=O)O; NMeAib = CNC(C)(C)C(=O)O; Piperidide = C1CCN(*)CC1; Pyrrolidide = C1CCN(*)C1; dNMeA = CN[C@H](C)C(=O)O; Ac5c = NC1(C(=O)O)CCCC1; Aze = O=C(O)[C@@H]1CCN1; Ac3c = NC1(C(=O)O)CC1; Isopentyl = CC(C)CC*; NPrGly = CCCNCC(=O)O; Sar = CNCC(=O)O
Biological target: T1, Kras and SOS1 (biotin-tagged human Kras loaded with GDP, His-tagged human SOS1) (Homo sapiens, UniProt P01116, G12D)
T1 construct: made in house; host or cells: E. coli (stated for Kras only)
T1 sequence (P01116 1-188 isoform P01116-2 G12D): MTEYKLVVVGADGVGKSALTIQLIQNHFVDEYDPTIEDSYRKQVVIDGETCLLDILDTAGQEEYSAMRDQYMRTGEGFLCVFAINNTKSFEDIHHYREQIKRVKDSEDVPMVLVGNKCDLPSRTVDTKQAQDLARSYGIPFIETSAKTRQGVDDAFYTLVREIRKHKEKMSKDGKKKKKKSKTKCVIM
Experiment: Protein-protein interaction inhibition between Kras and SOS1 (KrasGl2D-SOS PPI) using AlphaScreen
Type: binding
Conditions: AlphaScreen; biotin-tagged human Kras loaded with GDP, His-tagged human SOS1; read-out: KRAS G12D-SOS PPI IC50
In short: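 Energy transfer from nickel-chelate donor beads bound to His-SOS1 to streptavidin acceptor beads bound to biotin-Kras, expressed in E. coli and loaded with GDP after purification, was monitored. Donors were excited at 680 nm; singlet oxygen reaching acceptors gave emission read at 520-620 nm.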

Row | Compound | IC50 [nM]
1 | CC[C@H](C)[C@@H]1NC(=O)[C@H](CC(C)C)N(C)C(=O)C[C@@H](C(=O)N2CCCCC2)N(C)C(=O)[C@H](C2CCCCC2)N(C)C(=O)C2(CCCC2)NC(=O)[C@@H]2C[C@H](c3ccccc3)CN2C(=O)[C@H](CCc2ccc(C(F)(F)F)c(Cl)c2)NC(=O)CN(C)C(=O)[C@H](CC2CCCCC2)N(C)C(=O)[C@@H]2CCCN2C(=O)CN(C)C1=O [Compound 1096] ([NMeL]I[Sar]P[NMeCha][Sar][hPhe(3-Cl-4-CF3)][Pro(cis-4-Ph)][Ac5c][NMeChg][NMeD]-Piperidide; lactam N-11) | 2.6
2 | CC[C@H](C)[C@@H]1NC(=O)[C@@H]2CCCCN2C(=O)C[C@@H](C)NC(=O)[C@H](CC(C)C)N(C)C(=O)C2(CCCC2)NC(=O)[C@@H]2CCCN2C(=O)[C@H](CCc2ccc(C(F)(F)F)cc2)NC(=O)CN(C)C(=O)[C@H](CC2CCCCC2)N(C)C(=O)CN(C)C(=O)CN(C)C1=O [Compound 1097] (cyclo([Ac5c][NMeL][d(β3hA)][Pip]I[Sar][Sar][NMeCha][Sar][hPhe(4-CF3)]P)) | 230
3 | CC[C@H](C)[C@@H]1NC(=O)[C@H](CC(C)C)N(C)C(=O)C[C@@H](C(=O)N2CCCCC2)N(C)C(=O)[C@H](CC(C)C)NC(=O)C(C)(C)N(C)C(=O)[C@H](Cc2ccccc2OC)NC(=O)[C@H](Cc2cccc(I)c2)NC(=O)CN(C)C(=O)[C@H](Cc2ccc(C)cc2)N(C)C(=O)CN(C)C(=O)CN(C)C1=O [Compound 1100] ([NMeL]I[Sar][Sar][NMePhe(4-Me)][Sar][Phe(3-I)][Phe(2-OMe)][NMeAib]L[NMeD]-Piperidide; lactam N-11) | 6.3
4 | CC[C@H](C)[C@@H]1NC(=O)[C@H](CC(C)C)N(C)C(=O)C[C@@H](C(=O)N2CCCCC2)N(C)C(=O)[C@H]([C@@H](C)OC)N(C)C(=O)C2(CCCC2)NC(=O)[C@@H]2CCCN2C(=O)[C@H](CCc2ccc(C(F)(F)F)c(Cl)c2)NC(=O)CN(C)C(=O)[C@H](CC2CCCCC2)N(C)C(=O)CN(C)C(=O)CN(C)C1=O [Compound 1101] ([NMeL]I[Sar][Sar][NMeCha][Sar][hPhe(3-Cl-4-CF3)]P[Ac5c][NMeT](Me)[NMeD]-Piperidide; lactam N-11) | 9
5 | CC[C@H](C)[C@@H]1NC(=O)[C@H](C)N(C)C(=O)C[C@@H](C(=O)N2CCCCC2)N(C)C(=O)[C@H](C(C)C)N(C)C(=O)C2(CCCC2)NC(=O)[C@@H]2CCCN2C(=O)[C@H](CCc2ccc(C(F)(F)F)c(Cl)c2)NC(=O)[C@@H](C)N(C)C(=O)[C@H](CC2CCCCC2)N(C)C(=O)[C@@H]2CCN2C(=O)[C@H](C)N(C)C1=O [Compound 1103] ([NMeA]I[NMeA][Aze][NMeCha][dNMeA][hPhe(3-Cl-4-CF3)]P[Ac5c][NMeV][NMeD]-Piperidide; lactam N-11) | 16
6 | CC[C@H](C)[C@@H]1NC(=O)[C@H](C)N(C)C(=O)C[C@@H](C(=O)N2CCCCC2)N(C)C(=O)[C@H](C(C)C)N(C)C(=O)[C@H](CC(F)(F)F)NC(=O)[C@H](CCN2CC(F)(F)C2)N(C)C(=O)[C@H](CCc2ccc(C(F)(F)F)c(Cl)c2)NC(=O)CN(C)C(=O)[C@H](CC2CCCCC2)N(C)C(=O)CN(C)C(=O)CN(C)C1=O [Compound 1104] ([NMeA]I[Sar][Sar][NMeCha][Sar][hPhe(3-Cl-4-CF3)][NMeDab(N,N-(CH2CF2CH2))][Abu(4,4,4-F3)][NMeV][NMeD]-Piperidide; lactam N-11) | 11
7 | CC[C@H](C)[C@@H]1NC(=O)[C@H](CC(C)C)N(C)C(=O)C[C@@H](C(=O)N2CCCCC2)N(C)C(=O)[C@H](C(C)C)NC(=O)C2(CCCC2)NC(=O)[C@@H]2CCCN2C(=O)[C@H](CCc2ccc(C(F)(F)F)c(Cl)c2)NC(=O)CN(C)C(=O)[C@H](CC2CCCCC2)N(C)C(=O)[C@@H]2CCN2C(=O)[C@H](C)N(C)C1=O [Compound 1106] ([NMeL]I[NMeA][Aze][NMeCha][Sar][hPhe(3-Cl-4-CF3)]P[Ac5c]V[NMeD]-Piperidide; lactam N-11) | 35
8 | CC[C@H](C)[C@@H]1NC(=O)[C@H](CC(C)C)N(C)C(=O)C[C@@H](C(=O)N(C)C)N(C)C(=O)[C@H](C2CCCC2)N(C)C(=O)[C@H](COC)NC(=O)[C@H](CC(=O)N2CC(F)(F)C2)N(C)C(=O)[C@H](CCc2ccc(C(F)(F)F)c(Cl)c2)NC(=O)CN(C)C(=O)[C@H](CC2CCCCC2)N(C)C(=O)[C@@H]2CCN2C(=O)[C@H](C)N(C)C1=O [Compound 1108] ([NMeL]I[NMeA][Aze][NMeCha][Sar][hPhe(3-Cl-4-CF3)][NMeD](Azetidine(3,3-F2))S(Me)[NMeGly(cPent)][NMeD]-NMe2; lactam N-11) | 11
9 | CC[C@H](C)[C@@H]1NC(=O)[C@@H]2CCCCN2C(=O)C[C@@H](C)NC(=O)[C@H](C(C)C)N(C)C(=O)[C@H](Cc2ccccc2)N(C)C(=O)[C@H](CC(C)C)N(C)C(=O)[C@H](CCc2ccc(C(F)(F)F)cc2)NC(=O)CN(C)C(=O)[C@H](Cc2ccc(Cl)cc2)N(C)C(=O)CN(C)C(=O)CN(C)C1=O [Compound 1110] (cyclo(I[Sar][Sar][NMePhe(4-Cl)][Sar][hPhe(4-CF3)][NMeL][NMeF][NMeV][d(β3hA)][Pip])) | 130
10 | CC[C@H](C)[C@@H]1NC(=O)[C@H](CC(C)C)N(C)C(=O)C[C@@H](C)NC(=O)[C@H](C(C)C)N(C)C(=O)C2(CC2)NC(=O)[C@@H]2CCCN2C(=O)[C@H](CCc2ccc(C(F)(F)F)c(Cl)c2)NC(=O)CN(C)C(=O)[C@H](CC2CCCCC2)N(C)C(=O)CN(C)C(=O)CN(C)C1=O [Compound 1111] (cyclo([Ac3c][NMeV][d(β3hA)][NMeL]I[Sar][Sar][NMeCha][Sar][hPhe(3-Cl-4-CF3)]P)) | 41
11 | CCC[C@H]1C(=O)NC2(CCCC2)C(=O)N(C)[C@@H](C2CCCCC2)C(=O)N(C)[C@H](C(=O)N2CCCCC2)CC(=O)N(C)[C@@H](CC(C)C)C(=O)N[C@@H]([C@@H](C)CC)C(=O)N(C)[C@@H](C)C(=O)N2CC[C@H]2C(=O)N(C)[C@@H](CC2CCCCC2)C(=O)N(C)CC(=O)N[C@@H](CCc2ccc(C(F)(F)F)c(Cl)c2)C(=O)N1C [Compound 1113] ([NMeL]I[NMeA][Aze][NMeCha][Sar][hPhe(3-Cl-4-CF3)][NMeNva][Ac5c][NMeChg][NMeD]-Piperidide; lactam N-11) | 410
12 | CC[C@H](C)[C@@H]1NC(=O)[C@H](C)N(C)C(=O)C[C@@H](C(=O)N2CCCC2)NC(=O)[C@H](CC(C)C)N(C)C(=O)[C@H](Cc2ccccc2)N(C)C(=O)[C@H](COCCC(C)C)NC(=O)[C@H](CCc2ccc(C(F)(F)F)cc2)NC(=O)CN(C)C(=O)[C@H](Cc2ccc(Cl)cc2)N(C)C(=O)CN(C)C(=O)CN(C)C1=O [Compound 1119] ([NMeA]I[Sar][Sar][NMePhe(4-Cl)][Sar][hPhe(4-CF3)]S(Isopentyl)[NMeF][NMeL]D-Pyrrolidide; lactam N-11) | 180
13 | CC[C@H](C)[C@@H]1NC(=O)[C@H](C)N(C)C(=O)C[C@@H](C(=O)N2CCCCC2)N(C)C(=O)[C@H](C(C)C)N(C)C(=O)C2(CCCC2)NC(=O)[C@@H]2CCCN2C(=O)[C@H](CCc2ccc(C(F)(F)F)c(Cl)c2)NC(=O)CN(C)C(=O)[C@H](CC2CCCCC2)N(C)C(=O)[C@@H]2CCCN2C(=O)CN(C)C1=O [Compound 1121] ([NMeA]I[Sar]P[NMeCha][Sar][hPhe(3-Cl-4-CF3)]P[Ac5c][NMeV][NMeD]-Piperidide; lactam N-11) | 1.4
14 | CC[C@H](C)[C@@H]1NC(=O)[C@H](CC(C)C)N(C)C(=O)C[C@@H](C(=O)N2CCCCC2)N(C)C(=O)[C@H](CC(C)C)NC(=O)C(C)(C)N(C)C(=O)[C@H](Cc2ccccc2C(F)(F)F)NC(=O)[C@H](Cc2cccc(I)c2)NC(=O)CN(C)C(=O)[C@H](Cc2ccc(C)cc2)N(C)C(=O)CN(C)C(=O)CN(C)C1=O [Compound 1127] ([NMeL]I[Sar][Sar][NMePhe(4-Me)][Sar][Phe(3-I)][Phe(2-CF3)][NMeAib]L[NMeD]-Piperidide; lactam N-11) | 260
15 | CC[C@H](C)[C@@H]1NC(=O)[C@H](CC(C)C)N(C)C(=O)C[C@@H](C(=O)N2CCCCC2)N(C)C(=O)[C@H](CC(C)C)NC(=O)C(C)(C)N(C)C(=O)[C@H](Cc2ccccc2OC(F)(F)F)NC(=O)[C@H](Cc2cccc(I)c2)NC(=O)CN(C)C(=O)[C@H](Cc2ccc(C)cc2)N(C)C(=O)[C@@H]2CCN2C(=O)[C@H](C)N(C)C1=O [Compound 1129] ([NMeL]I[NMeA][Aze][NMePhe(4-Me)][Sar][Phe(3-I)][Phe(2-OCF3)][NMeAib]L[NMeD]-Piperidide; lactam N-11) | 150
16 | CCCN1CC(=O)N(C)[C@@H]([C@@H](C)CC)C(=O)N(C)[C@H](C(=O)N(C)C)CC(=O)N(C)[C@@H](CC(C)C)C(=O)N[C@@H]([C@@H](C)CC)C(=O)N(C)[C@@H](C)C(=O)N2CC[C@H]2C(=O)N(C)[C@@H](Cc2ccc(C)cc2)C(=O)N(C)CC(=O)N[C@@H](CCc2ccc(C(F)(F)F)c(Cl)c2)C(=O)N2CCC[C@H]2C1=O [Compound 1131] ([NMeL]I[NMeA][Aze][NMePhe(4-Me)][Sar][hPhe(3-Cl-4-CF3)]P[NPrGly][NMeI][NMeD]-NMe2; lactam N-11) | 13
17 | CC(C)=CC[C@@H]1NC(=O)[C@H](CC(C)C)N(C)C(=O)C[C@@H](C(=O)N2CCCCC2)N(C)C(=O)[C@H](C2CCCCC2)N(C)C(=O)C2(CCCC2)NC(=O)[C@@H]2CCCN2C(=O)[C@H](CCc2ccc(C(F)(F)F)c(Cl)c2)NC(=O)CN(C)C(=O)[C@H](CC2CCCCC2)N(C)C(=O)CN(C)C(=O)CN(C)C1=O [Compound 1134] ([NMeL][X10][Sar][Sar][NMeCha][Sar][hPhe(3-Cl-4-CF3)]P[Ac5c][NMeChg][NMeD]-Piperidide; lactam N-11) | 6

From patent publication US12371454B2, “Cyclic peptide compound having Kras inhibitory action” (priority 2019, dated 2025)
